Test results from ChEMBL document CHEMBL5518189, “Design, synthesis and biological evaluation of 1,2,3-triazole benzothiazole derivatives as tubulin polymerization inhibitors with potent anti-esophageal cancer activities” (Eur J Med Chem, 2024).
Active and inactive are the calls of the source. No cut-off for these calls is given here.

Experiments:
KYSE-30 [1] = experiment: Antiproliferative activity against human KYSE-30 cells assessed as inhibition of cell growth measured after 48 hrs by CCK8 method; format: functional, cell-based; details: KYSE-30, 48 h
Tubulin = experiment: Inhibition of tubulin polymerization (unknown origin) measured upto 4500 secs by fluorescence based analysis; format: protein-complex assay, Homo sapiens
Tubulin (Homo sapiens) = Tubulin (Homo sapiens) (UniProt P68371+Q9H4B7+P0DPH7+P68366+Q13509+Q71U36+P04350+Q3ZCM7+P07437+P68363+Q9BQE3+Q6PEY2+Q13885+Q9BVA1+Q9BUF5); experiment: Inhibition of tubulin polymerization in human KYSE-30 cells assessed as appearance of multinucleation at 20 to 40 nM incubated for 6 hrs by immunofluorescence staining based fluorescence microscopic analysis; format: cell-based; details: dose 20-40 nM
KYSE-30 [2] = experiment: Antiproliferative activity against human KYSE-30 cells assessed as reduction in cell viability measured after 48 hrs by CCK-8 method; format: functional, cell-based; details: dose 10-70 nM
ECa-109 cell line [3] = experiment: Antiproliferative activity against human EC109 cells assessed as reduction in cell viability measured after 48 hrs by CCK-8 method; format: functional, cell-based; details: dose 10-70 nM
ECa-109 cell line [4] = experiment: Antiproliferative activity against human EC109 cells assessed as reduction in cell viability at 70 nM measured after 48 hrs by CCK-8 method relative to control; format: functional
KYSE-30 [5] = experiment: Antiproliferative activity against human KYSE-30 cells assessed as reduction in cell viability by CCK-8 method; format: functional, cell-based; details: time 12-48 hrs, TDE = time-dependent effect
ECa-109 cell line [6] = experiment: Antiproliferative activity against human EC109 cells assessed as reduction in cell viability by CCK-8 method; format: functional, cell-based; details: time 12-48 hrs, TDE = time-dependent effect
KYSE-30 [7] = experiment: Inhibition of colony formation in human KYSE-30 cells at 20 to 40 nM incubated for 7 days by crystal violet staining based analysis; format: functional, cell-based; details: dose 20-40 nM, time 7.0 day
ECa-109 cell line [8] = experiment: Induction of cell cycle arrest in human EC109 cells assessed as accumulation of cells at G2/M phase at 0 to 40 nM measured after 48 hrs by propidium iodide staining based flow cytometry analysis (reference value: 14.57%); format: functional; details: dose 0-40 nM
ECa-109 cell line [9] = experiment: Induction of cell cycle arrest in human EC109 cells assessed as downregulation of CDK1 level at 40 to 60 nM measured after 48 hrs by Western blot analysis; format: functional, cell-based; details: dose 40-60 nM
ECa-109 cell line [10] = experiment: Induction of cell cycle arrest in human EC109 cells assessed as downregulation of Wee1 phosphorylation level at 40 to 60 nM measured after 48 hrs by Western blot analysis; format: functional, cell-based; details: dose 40-60 nM
ECa-109 cell line [11] = experiment: Induction of cell cycle arrest in human EC109 cells assessed as effect on cyclinB1 level at 40 to 60 nM measured after 48 hrs by Western blot analysis; format: functional, cell-based; details: dose 40-60 nM
ECa-109 cell line [12] = experiment: Induction of cell cycle arrest in human EC109 cells assessed as upregulation of histone H3 phosphorylation level at 40 to 60 nM measured after 48 hrs by Western blot analysis; format: functional, cell-based; details: dose 40-60 nM
KYSE-30 [13] = experiment: Induction of cell cycle arrest in human KYSE-30 cells assessed as downregulation of CDK1 level at 40 to 60 nM measured after 48 hrs by Western blot analysis; format: functional, cell-based; details: dose 40-60 nM
KYSE-30 [14] = experiment: Induction of cell cycle arrest in human KYSE-30 cells assessed as upregulation of histone H3phosphorylation level at 40 to 60 nM measured after 48 hrs by Western blot analysis; format: functional, cell-based; details: dose 40-60 nM
ECa-109 cell line [15] = experiment: Induction of apoptosis in human EC109 cells assessed as increase in total number of apoptotic cells at 40 nM measured after 48 hrs by annexin V-FITC and PI staining based flow cytometry analysis (reference value: 4.93%); format: functional
KYSE-30 [16] = experiment: Induction of apoptosis in human KYSE-30 cells assessed as increase in total number of apoptotic cells at 40 nM measured after 48 hrs by annexin V-FITC and PI staining based flow cytometry analysis (reference value: 13.77%); format: functional
ECa-109 cell line [17] = experiment: Induction of apoptosis in human EC109 cells measured after 48 hrs by annexin V-FITC and PI staining based flow cytometry analysis; format: functional, cell-based; details: dose 20-40 nM
KYSE-30 [18] = experiment: Induction of apoptosis in human KYSE-30 cells assessed as increase in caspase 3 activity at 40 to 100 nM measured after 48 hrs by Western blot analysis; format: functional, cell-based; details: dose 40-100 nM
KYSE-30 [19] = experiment: Induction of apoptosis in human KYSE-30 cells assessed as increase in cleaved caspase 3 level at 40 to 100 nM measured after 48 hrs by Western blot analysis; format: functional, cell-based; details: dose 40-100 nM
ECa-109 cell line [20] = experiment: Induction of apoptosis in human EC109 cells assessed as increase in cleaved caspase 3 level at 40 to 100 nM measured after 48 hrs by Western blot analysis; format: functional, cell-based; details: dose 40-100 nM
ECa-109 cell line [21] = experiment: Induction of apoptosis in human EC109 cells assessed as increase in cleaved PARP level at 40 to 100 nM measured after 48 hrs by Western blot analysis; format: functional, cell-based; details: dose 40-100 nM
Cell membrane [22] = experiment: Induction of mitochondrial membrane depolarization in human KYSE-30 cells at 40 to 60 nM incubated for 24 hrs by flow cytometry analysis; format: cell membranes; details: dose 40-60 nM
Cell membrane [23] = experiment: Induction of mitochondrial membrane depolarization in human EC109 cells at 40 to 60 nM incubated for 24 hrs by flow cytometry analysis; format: cell membranes; details: dose 40-60 nM
Cell membrane [24] = experiment: Induction of mitochondrial membrane depolarization in human EC109 cells assessed as increase in caspase 9 activity at 40 to 60 nM incubated for 24 hrs by flow cytometry analysis; format: cell membranes; details: dose 40-60 nM
ECa-109 cell line [25] = experiment: Induction of apoptosis in human EC109 cells assessed as effect on bax level at 40 to 60 nM by flow cytometry analysis; format: functional, cell-based; details: dose 40-60 nM
ECa-109 cell line [26] = experiment: Induction of apoptosis in human EC109 cells assessed as effect on bak level at 40 to 60 nM by flow cytometry analysis; format: functional, cell-based; details: dose 40-60 nM
ECa-109 cell line [27] = experiment: Induction of apoptosis in human EC109 cells assessed as downregulation of bcl-2 level at 40 to 60 nM by flow cytometry analysis; format: functional, cell-based; details: dose 40-60 nM
ECa-109 cell line [28] = experiment: Induction of apoptosis in human EC109 cells assessed as downregulation of XIAP level at 40 to 60 nM by flow cytometry analysis; format: functional, cell-based; details: dose 40-60 nM
ECa-109 cell line [29] = experiment: Induction of apoptosis in human EC109 cells assessed as increase in Noxa expression level at 40 to 60 nM by flow cytometry analysis; format: functional, cell-based; details: dose 40-60 nM
KYSE-30 [30] = experiment: Induction of apoptosis in human KYSE-30 cells assessed as effect on bax level at 40 to 60 nM by flow cytometry analysis; format: functional, cell-based; details: dose 40-60 nM
KYSE-30 [31] = experiment: Induction of apoptosis in human KYSE-30 cells assessed as effect on bak level at 40 to 60 nM by flow cytometry analysis; format: functional, cell-based; details: dose 40-60 nM
KYSE-30 [32] = experiment: Induction of apoptosis in human KYSE-30 cells assessed as effect on Mcl-1 level at 40 to 60 nM by flow cytometry analysis; format: functional, cell-based; details: dose 40-60 nM
KYSE-30 [33] = experiment: Induction of apoptosis in human KYSE-30 cells assessed as downregulation of Bcl-2 level at 40 to 60 nM by flow cytometry analysis; format: functional, cell-based; details: dose 40-60 nM
KYSE-30 [34] = experiment: Induction of apoptosis in human KYSE-30 cells assessed as downregulation of XIAP level at 40 to 60 nM by flow cytometry analysis; format: functional, cell-based; details: dose 40-60 nM
ECa-109 [35] = experiment: Effect on MST2 level in human EC109 cells at 40 to 60 nM measured after 48 hrs; format: functional, cell-based; details: dose 40-60 nM
ECa-109 [36] = experiment: Downregulation of YAP level in human EC109 cells at 60 nM incubated for 48 hrs in presence of MG132; format: functional, cell-based

COc1ccc(CN(C(=O)Cn2cc(CSc3nc4ccccc4s3)nn2)c2cc(OC)c(OC)c(OC)c2)cc1O was tested, and the IC50 (KYSE-30 [1]) was 42 nM, the IC50 (Tubulin) was 446 nM and the inhibition (Tubulin (Homo sapiens)) was “Active”. For the same molecule, the Activity (KYSE-30 [2]) was “Dose-Dependent Effect”, the Activity (ECa-109 cell line [3]) was “Dose-Dependent Effect” and the Activity (ECa-109 cell line [4]) was over 90%. For the same molecule, the Activity (KYSE-30 [5]) was “Tde”, the Activity (ECa-109 cell line [6]) was “Tde” and the inhibition (KYSE-30 [7]) was “Active”. For the same molecule, the Activity (ECa-109 cell line [8]) was 55.65%, the Activity (ECa-109 cell line [9]) was “Active” and the Activity (ECa-109 cell line [10]) was “Active”. The Activity (ECa-109 cell line [11]) was “inactive”, the Activity (ECa-109 cell line [12]) was “Active” and the Activity (KYSE-30 [13]) was “Active”. The Activity (KYSE-30 [14]) was “Active”, the Activity (ECa-109 cell line [15]) was 31.07% and the Activity (KYSE-30 [16]) was 28.56%. For the same molecule, the Activity (ECa-109 cell line [17]) was “Dose-Dependent Effect”, the Activity (KYSE-30 [18]) was “Active” and the Activity (KYSE-30 [19]) was “Active”. For the same molecule, the Activity (ECa-109 cell line [20]) was “Active”, the Activity (ECa-109 cell line [21]) was “Active” and the Activity (Cell membrane [22]) was “Active”. The Activity (Cell membrane [23]) was “Active”, the Activity (Cell membrane [24]) was “Active” and the Activity (ECa-109 cell line [25]) was “inactive”. For the same molecule, the Activity (ECa-109 cell line [26]) was “inactive”, the Activity (ECa-109 cell line [27]) was “Active” and the Activity (ECa-109 cell line [28]) was “Active”. For the same molecule, the Activity (ECa-109 cell line [29]) was “Active”, the Activity (KYSE-30 [30]) was “inactive” and the Activity (KYSE-30 [31]) was “inactive”. For the same molecule, the Activity (KYSE-30 [32]) was “inactive”, the Activity (KYSE-30 [33]) was “Active” and the Activity (KYSE-30 [34]) was “Active”. The Activity (ECa-109 [35]) was “inactive” and the Activity (ECa-109 [36]) was “inactive”.
